The experiment relates to CD34+ myeloblast cells in healthy BMMCs. The experiment in a line: Effects of therapeutics on healthy bone marrow mononuclear cells: CD45 versus CD34 expression by flow cytometry. The class given is cell-based. The note with it: live healthy BMMCs, 1:3 dilutions, 100 μM to 0.0017 μM, after 24 hours.

2 molecules from patent US20140134648A1, “METHODS OF DETERMINING THE HEALTH STATUS OF AN INDIVIDUAL” (NODALITY, INC., priority 2008, published 2014) can be followed below.

“Also recorded” adds a separate entry of the source.

`Nc1ncn([C@@H]2O[C@H](CO)[C@@H](O)[C@H]2O)c(=O)n1` [5-Azacytidine]: the “loss / viability of the rare population of CD34+ myeloblast cells” value is reported as “dose-dependent loss of a rare population of CD34+ myeloblast cells; also recorded: concentration dependent loss of CD34+ myeloblast cells”. On to `O=C(CCCCCCC(=O)Nc1ccccc1)NO` [Vorinostat], for which the “loss / viability of the rare population of CD34+ myeloblast cells” value is on record as “selective loss of rare population of CD34+ myeloblast cells in a dose-dependent fashion; also recorded: concentration dependent loss of CD34+ myeloblast cells”.
